From US9394264B2 (Receptos, Inc., priority 2009, dated 2016)
Like-named read-outs stand apart in the source and are kept apart here.

Columns and labels:
Format in all cases: cell-based
S1P1/EDG1 = S1P1/EDG1 (Homo sapiens, UniProt P21453); assay: S1P1 CRE-bla CHOK1 reporter assay (inhibition of Forskolin induced cAMP); conditions: S1P1 CRE-bla CHOK1 cells, 2 μM Forskolin
From the text: A mammalian expression plasmid containing S1P1/EDG1 cloned into pcDNA3.1 was purchased from Missouri S&T cDNA Resource Centre. The nucleotide and amino acid sequence of human S1P1/EDG1 are published in Hla and Maciag (J Biol Chem, 265(1990), 9308-9313). S1P1/pcDNA3.1 was transfected into the CRE-bla CHO K1 (Invitrogen) cell line, and stable single cell clones were selected using standard techniques. Expression of functional S1P1/EDG1 receptor was confirmed by cell surface FACS with a S1P1 antibody (R&D Systems, clone 218713) and S1P-mediated inhibition of Forskolin induced cAMP.
(§1) Cells were seeded into 384-well black wall/clear bottom plates at 10^4 cells/well/19.5 μl assay media (DMEM-phenol free, 0.5% charcoal/dextran stripped serum, 2 mM glutamine, 0.1 mM NEAA, 1 mM Na-Pyruvate, 25 mM Hepes) and incubated for 18 hrs at 37° C. in 5% CO2. Dose response curves (10-point) were generated in 10 mM Hepes, 0.1% Pluronic F127, in the presence of Forskolin. Cells were treated with 0.5 μl compound in the presence of 2 μM Forskolin for 4 hrs at 37° C. The FRET-based β-lactamase fluorescent substrate (LiveBLAzer™-FRET B/G Loading Kit CC4-AM; Invitrogen) was prepared according to manufacturer's directions, and incubated with cells for 2 hrs at room temperature. Plates were read at Ex:410/Em:458 and Ex:410/Em:522, and the response ratio determined. Data was analyzed by non-linear regression to determine the EC50 for inhibition of Forskolin induced cAMP.

S1P2 = target: T1, S1P2 (Homo sapiens, UniProt O95136); assay: Specificity over other S1P receptors: S1P2 CRE-bla CHOK1; conditions: S1P2 CRE-bla CHOK1, without Forskolin; read-out: S1P2 agonist value (EC50)
T1 construct: expressed in transfected cells; host or cells: CRE-bla CHOK1
Experimental: as §1
(§2) To assess compound specificity on other S1P receptors the following cell lines were used: S1P2 CRE-bla CHOK1, S1P3-Gα15 NFAT-bla HEK293T (Invitrogen), S1P4-bla TANGO U2OS (Invitrogen), S1P5-bla TANGO U2OS (Invitrogen). The same assay set up for S1P1 was used but without Forskolin. S1P4 and S1P5 assays were performed in FreeStyle Expression medium (Invitrogen). S1P5 cells were incubated for 48 hrs in prior to treatment with compound.

S1P3 = target: T2, S1P3 (Homo sapiens, UniProt Q99500); assay: Specificity over other S1P receptors: S1P3-Gα15 NFAT-bla HEK293T; conditions: without Forskolin, read-out: S1P3 agonist value (EC50)
T2 construct: host or cells: NFAT-bla HEK293T
Experimental: as §1, §2

S1P4 = target: T3, S1P4 (Homo sapiens, UniProt O95977); assay: Specificity over other S1P receptors: S1P4-bla TANGO U2OS; conditions: without Forskolin, read-out: S1P4 agonist value (EC50)
T3 construct: Tango fusion (C); host or cells: U2OS (Tango, bla reporter)
T3 sequence (O95977 1-384): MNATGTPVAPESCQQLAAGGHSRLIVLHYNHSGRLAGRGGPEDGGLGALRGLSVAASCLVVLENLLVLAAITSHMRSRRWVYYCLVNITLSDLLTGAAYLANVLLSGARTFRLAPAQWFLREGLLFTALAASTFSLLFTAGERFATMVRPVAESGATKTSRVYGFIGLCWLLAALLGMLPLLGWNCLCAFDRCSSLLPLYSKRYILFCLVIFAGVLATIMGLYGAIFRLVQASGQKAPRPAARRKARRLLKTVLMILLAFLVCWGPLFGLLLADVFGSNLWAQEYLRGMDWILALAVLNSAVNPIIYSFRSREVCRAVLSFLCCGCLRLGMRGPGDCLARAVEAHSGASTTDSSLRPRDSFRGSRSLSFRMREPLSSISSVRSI
Experimental: as §1, §2

S1P5 = target: T4, S1P5 (Homo sapiens, UniProt Q9H228); assay: Specificity over other S1P receptors: S1P5-bla TANGO U2OS; conditions: without Forskolin, read-out: S1P5 agonist value (EC50)
T4 construct: Tango fusion (C); host or cells: U2OS (Tango, bla reporter)
Experimental: as §1, §2

[1] = read-out: S1P1 agonist value (EC50)
[2] = agonist activity range, read-out: S1P1 ACTIVITY

T2 sequence (Q99500 whole entry): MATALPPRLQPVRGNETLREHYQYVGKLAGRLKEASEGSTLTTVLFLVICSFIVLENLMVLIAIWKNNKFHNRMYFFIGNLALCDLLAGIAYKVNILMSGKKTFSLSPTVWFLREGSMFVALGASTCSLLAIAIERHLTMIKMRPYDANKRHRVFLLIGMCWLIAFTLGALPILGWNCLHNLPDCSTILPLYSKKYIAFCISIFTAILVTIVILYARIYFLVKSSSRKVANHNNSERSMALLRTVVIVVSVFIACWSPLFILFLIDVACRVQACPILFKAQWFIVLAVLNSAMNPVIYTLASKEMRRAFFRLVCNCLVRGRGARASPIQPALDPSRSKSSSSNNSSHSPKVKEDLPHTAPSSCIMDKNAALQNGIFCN
Sequence of S1P1/EDG1 (P21453 whole entry): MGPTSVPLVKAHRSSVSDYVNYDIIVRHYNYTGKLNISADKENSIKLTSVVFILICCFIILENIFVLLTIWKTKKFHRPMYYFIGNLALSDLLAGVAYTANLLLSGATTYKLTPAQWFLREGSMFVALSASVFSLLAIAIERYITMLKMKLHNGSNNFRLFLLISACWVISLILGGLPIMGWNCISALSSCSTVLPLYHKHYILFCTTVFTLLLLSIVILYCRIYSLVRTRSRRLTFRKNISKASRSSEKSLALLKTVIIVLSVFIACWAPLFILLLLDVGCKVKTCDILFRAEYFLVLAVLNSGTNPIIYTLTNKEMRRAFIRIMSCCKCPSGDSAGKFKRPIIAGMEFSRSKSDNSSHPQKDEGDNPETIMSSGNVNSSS
T1 sequence (O95136 whole entry, species assumed): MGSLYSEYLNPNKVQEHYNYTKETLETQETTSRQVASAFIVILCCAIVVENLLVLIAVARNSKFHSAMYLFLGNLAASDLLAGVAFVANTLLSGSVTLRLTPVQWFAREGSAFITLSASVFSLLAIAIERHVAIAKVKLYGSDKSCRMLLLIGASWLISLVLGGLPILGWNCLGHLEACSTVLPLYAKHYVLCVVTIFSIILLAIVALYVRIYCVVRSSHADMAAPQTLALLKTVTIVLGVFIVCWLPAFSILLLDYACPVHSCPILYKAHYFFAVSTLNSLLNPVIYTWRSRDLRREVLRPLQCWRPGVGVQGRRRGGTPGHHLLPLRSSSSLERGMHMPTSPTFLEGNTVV
T4 sequence (Q9H228 whole entry, the tested form may be a part): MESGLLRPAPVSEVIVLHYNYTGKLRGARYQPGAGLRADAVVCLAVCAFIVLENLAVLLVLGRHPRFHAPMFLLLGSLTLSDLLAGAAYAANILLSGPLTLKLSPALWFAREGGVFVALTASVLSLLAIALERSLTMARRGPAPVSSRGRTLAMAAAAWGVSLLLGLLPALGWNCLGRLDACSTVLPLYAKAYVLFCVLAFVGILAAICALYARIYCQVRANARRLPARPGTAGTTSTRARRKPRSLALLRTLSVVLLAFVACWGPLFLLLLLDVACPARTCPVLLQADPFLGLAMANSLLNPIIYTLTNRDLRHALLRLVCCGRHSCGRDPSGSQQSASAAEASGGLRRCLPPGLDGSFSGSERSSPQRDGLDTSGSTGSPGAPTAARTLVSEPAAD

Structure (SMILES)	EC50 (S1P1/EDG1; [1]) [nM]	EC50 (S1P1/EDG1; [2]) [nM]	EC50 (S1P2) [nM]	EC50 (S1P3) [nM]	EC50 (S1P4) [nM]	EC50 (S1P5) [nM]
CC(C)Oc1ccc(-c2nc(-c3cccc4c3CCC[C@@H]4NS(C)(=O)=O)no2)cc1C#N [Compound 29, (S)-N-(5-(5-(3-cyano-4-isopropoxyphenyl)-1,2,4-oxadiazol-3-yl)-1,2,3,4-tetrahydronaphthalen-1-yl)methanesulfonamide]	0.065	0.05 to 0.5	> 10000	> 10000	> 10000	37.8
COCCS(=O)(=O)N[C@H]1CCCc2c(-c3noc(-c4ccc(OC(C)C)c(C#N)c4)n3)cccc21 [Compound 33, (S)-N-(5-(5-(3-cyano-4-isopropoxyphenyl)-1,2,4-oxadiazol-3-yl)-1,2,3,4-tetrahydronaphthalen-1-yl)-2-methoxyethanesulfonamide]	0.192	0.05 to 0.5	> 10000	> 10000	617	260
CC(C)Oc1ccc(-c2nc(-c3cccc4c3CCC[C@H]4NS(=O)(=O)CCO)no2)cc1C#N [Compound 37, (R)-N-(5-(5-(3-cyano-4-isopropoxyphenyl)-1,2,4-oxadiazol-3-yl)-1,2,3,4-tetrahydronaphthalen-1-yl)-2-hydroxyethanesulfonamide]	0.024	< 0.05	1440	> 10000	879	3.5
CC(C)Oc1ccc(-c2nc(-c3cccc4c3CCC[C@@H]4NCCS(C)(=O)=O)no2)cc1C#N [Compound 49, (S)-2-isopropoxy-5-(3-(5-((42-(methylsulfonyl)ethyl)amino)-5,6,7,8-tetrahydronaphthalen-1-yl)-1,2,4-oxadiazol-5-yl)benzonitrile]	0.104	0.05 to 0.5	> 10000	> 10000	> 10000	94.6
